# Measured values reported in US11382956B2, “Amylin analogues” (Zealand Pharma A/S, priority 2016, dated 2022).
# pEC50: −log10 of the molar value. Numbered stars: 1 amine (or outer) side, 2 acyl side, 3 side chain; on linkers, the order of the positions; unused ones are H or OH. Bridge positions count the residues as written; N and C are the ends. Square brackets hold non-standard residues; d marks the D form. Peptide text beside a SMILES is read from it. * marks the point of attachment. C20 diacid = O=C(O)CCCCCCCCCCCCCCCCCCC(=O)*; γGlu = O=C(O)[C@H](CCC(=O)[*:2])N[*:1]; Hyp = O=C(O)[C@@H]1C[C@@H](O)CN1; NMeI = CC[C@H](C)[C@H](NC)C(=O)O; Aad = N[C@@H](CCCC(=O)O)C(=O)O; Orn = NCCC[C@H](N)C(=O)O; Dap = NC[C@H](N)C(=O)O; Sar = CNCC(=O)O
# Columns and labels:
# [1] = biological target: T1, recombinant human calcitonin receptor (hCT-R) (Homo sapiens, UniProt P30988); assay: hCT-R cAMP assay (AlphaScreen) in 1321N1 cells; assay type: cell-based; settings: cAMP formation, 45 min stimulation
# T1 construct: host or cells: human astrocytoma cell line 1321N1
# T1 sequence (P30988 25-474): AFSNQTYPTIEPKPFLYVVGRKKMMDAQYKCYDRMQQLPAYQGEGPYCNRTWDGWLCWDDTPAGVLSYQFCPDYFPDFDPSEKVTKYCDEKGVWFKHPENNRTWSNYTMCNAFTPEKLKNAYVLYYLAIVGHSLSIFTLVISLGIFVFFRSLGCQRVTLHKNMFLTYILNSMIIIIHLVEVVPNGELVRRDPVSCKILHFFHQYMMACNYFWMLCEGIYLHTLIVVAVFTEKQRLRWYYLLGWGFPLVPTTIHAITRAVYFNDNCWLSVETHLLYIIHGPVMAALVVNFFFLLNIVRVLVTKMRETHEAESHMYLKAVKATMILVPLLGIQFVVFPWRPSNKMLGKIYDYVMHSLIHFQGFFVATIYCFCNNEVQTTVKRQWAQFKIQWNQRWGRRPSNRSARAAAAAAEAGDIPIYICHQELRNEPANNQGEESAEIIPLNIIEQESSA
# How it was run: (§1)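 EC50 values come from curve fits over at least 7 peptide concentrations, with cAMP read by AlphaScreen competition after 1 h in the dark. Cells were 1321N1 lines carrying human calcitonin receptor, with RAMP3 co-expressed for AMY3, treated 45 min at room temperature in the presence of IBMX.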
# [2] = biological target: T2, recombinant human amylin 3 receptor (hAMYR3) (Homo sapiens, UniProt O60896+P30988); assay: hAMYR3 cAMP assay (AlphaScreen) in 1321N1 cells; assay type: cell-based; settings: cAMP formation, 45 min stimulation
# T2 construct: host or cells: human astrocytoma cell line 1321N1
# T2 sequence (P30988 25-474): T1 sequence (P30988 25-474)
# T2 sequence (O60896 24-148 partner): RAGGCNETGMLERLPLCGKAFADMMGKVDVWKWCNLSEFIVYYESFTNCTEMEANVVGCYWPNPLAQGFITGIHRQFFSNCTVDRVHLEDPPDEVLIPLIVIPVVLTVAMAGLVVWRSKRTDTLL
# How it was run: as §1
pEC50 [1],pEC50 [2],SMILES
10.57,10.89,"CC[C@H](C)[C@@H](C(=O)N1CCC[C@H]1C(=O)N[C@@H](CO)C(=O)N[C@@H](CO)C(=O)N[C@H](C(=O)N[C@@H](CCC(=O)O)C(=O)N[C@H](C(=O)NCC(=O)N[C@@H](CO)C(=O)N[C@@H](CC(N)=O)C(=O)N[C@H](C(=O)N1C[C@H](O)C[C@H]1C(N)=O)[C@@H](C)O)C(C)C)[C@@H](C)O)N(C)C(=O)[C@H](C)NC(=O)CN(C)C(=O)[C@H](Cc1ccccc1)NC(=O)[C@H](CO)NC(=O)[C@H](CO)NC(=O)[C@H](CCCNC(=N)N)NC(=O)[C@H](CCC(N)=O)NC(=O)[C@H](CC(C)C)NC(=O)[C@H](Cc1ccccc1)NC(=O)[C@H](Cc1c[nH]cn1)NC(=O)[C@H](C)NC(=O)[C@H](CC(C)C)NC(=O)[C@H](CCCNC(=N)N)NC(=O)[C@H](CCC(N)=O)NC(=O)[C@@H](NC(=O)[C@H](C)NC(=O)[C@@H]1CCCNC(=O)C[C@H](NC(=O)[C@H](CCCNC(=N)N)NC(=O)CC[C@H](NC(=O)CCCCCCCCCCCCCCCCCCC(=O)O)C(=O)O)C(=O)NCC(=O)N[C@@H]([C@@H](C)O)C(=O)N[C@@H](C)C(=O)N[C@@H]([C@@H](C)O)C(=O)N1)[C@@H](C)O [Compound 9, [19CD]-isoGlu-RD()GTAT-Orn()-ATQRLAHFLQRSSF-Gly(Me)-A-Ile(Me)-PSSTEVGSNT-Hyp-NH2] ({C20 diacid-γGlu}-RDGTAT[Orn]ATQRLAHFLQRSSF[Sar]A[NMeI]PSSTEVGSNT[Hyp]-NH2; lactam 2-7)"
9.54,10.49,"CC[C@H](C)[C@@H](C(=O)N[C@@H](CC(C)C)C(=O)N[C@@H](CO)C(=O)N[C@@H](CO)C(=O)N[C@H](C(=O)N[C@@H](CCC(=O)O)C(=O)N[C@H](C(=O)NCC(=O)N[C@@H](CO)C(=O)N[C@@H](CC(N)=O)C(=O)N[C@H](C(=O)N1CCC[C@H]1C(N)=O)[C@@H](C)O)C(C)C)[C@@H](C)O)N(C)C(=O)[C@H](C)NC(=O)CN(C)C(=O)[C@H](Cc1ccccc1)NC(=O)[C@H](CO)NC(=O)[C@H](CO)NC(=O)[C@H](CCCNC(=N)N)NC(=O)[C@H](Cc1c[nH]cn1)NC(=O)[C@H](CC(C)C)NC(=O)[C@H](Cc1ccccc1)NC(=O)[C@H](Cc1c[nH]cn1)NC(=O)[C@H](C)NC(=O)[C@H](CC(C)C)NC(=O)[C@H](CCCNC(=N)N)NC(=O)[C@H](CCC(=O)O)NC(=O)[C@@H](NC(=O)[C@H](C)NC(=O)[C@@H]1CCCNC(=O)C[C@H](NC(=O)[C@H](CCCNC(=N)N)NC(=O)CC[C@H](NC(=O)CCCCCCCCCCCCCCCCCCC(=O)O)C(=O)O)C(=O)NCC(=O)N[C@@H]([C@@H](C)O)C(=O)N[C@@H](C)C(=O)N[C@@H]([C@@H](C)O)C(=O)N1)[C@@H](C)O [Compound 7, [19CD]-isoGlu-RD()GTAT-Orn()-ATERLAHFLHRSSF-Gly(Me)-A-Ile(Me)-LSSTEVGSNTP-NH2] ({C20 diacid-γGlu}-RDGTAT[Orn]ATERLAHFLHRSSF[Sar]A[NMeI]LSSTEVGSNTP-NH2; lactam 2-7)"
9.05,9.00,"CC[C@H](C)[C@@H](C(=O)N[C@@H](CC(C)C)C(=O)N[C@@H](CO)C(=O)N[C@@H](CO)C(=O)N[C@H](C(=O)N[C@@H](CCC(=O)O)C(=O)N[C@H](C(=O)NCC(=O)N[C@@H](CO)C(=O)N[C@@H](CC(N)=O)C(=O)N[C@H](C(=O)N1C[C@H](O)C[C@H]1C(N)=O)[C@@H](C)O)C(C)C)[C@@H](C)O)N(C)C(=O)[C@H](C)NC(=O)CN(C)C(=O)[C@H](Cc1ccccc1)NC(=O)[C@H](CO)NC(=O)[C@H](CO)NC(=O)[C@H](CCCNC(=N)N)NC(=O)[C@H](CCC(N)=O)NC(=O)[C@H](CC(C)C)NC(=O)[C@H](Cc1ccccc1)NC(=O)[C@H](Cc1c[nH]cn1)NC(=O)[C@H](C)NC(=O)[C@H](CC(C)C)NC(=O)[C@H](CCCNC(=N)N)NC(=O)[C@H](CCC(=O)O)NC(=O)[C@@H](NC(=O)[C@H](C)NC(=O)[C@@H]1CCCCNC(=O)C[C@H](NC(=O)[C@H](CCCNC(=N)N)NC(=O)CC[C@H](NC(=O)CCCCCCCCCCCCCCCCCCC(=O)O)C(=O)O)C(=O)NCC(=O)N[C@@H](CCC(=O)O)C(=O)N[C@@H](C)C(=O)N[C@@H]([C@@H](C)O)C(=O)N1)[C@@H](C)O [Compound 12, [19CD]-isoGlu-RD()GEATK()ATERLAHFLQRSSF-Gly(Me)-A-Ile(Me)-LSSTEVGSNT-Hyp-NH2] ({C20 diacid-γGlu}-RDGEATKATERLAHFLQRSSF[Sar]A[NMeI]LSSTEVGSNT[Hyp]-NH2; lactam 2-7)"
7.69,7.77,"CC[C@H](C)[C@@H](C(=O)N1CCC[C@H]1C(=O)N[C@@H](CO)C(=O)N[C@@H](CO)C(=O)N[C@H](C(=O)N[C@@H](CCC(=O)O)C(=O)N[C@H](C(=O)NCC(=O)N[C@@H](CO)C(=O)N[C@@H](CC(N)=O)C(=O)N[C@H](C(=O)N1C[C@H](O)C[C@H]1C(N)=O)[C@@H](C)O)C(C)C)[C@@H](C)O)N(C)C(=O)[C@H](C)NC(=O)CN(C)C(=O)[C@H](Cc1ccccc1)NC(=O)[C@H](CO)NC(=O)[C@H](CO)NC(=O)[C@H](CCCNC(=N)N)NC(=O)[C@H](CCC(N)=O)NC(=O)[C@H](CC(C)C)NC(=O)[C@H](Cc1ccccc1)NC(=O)[C@H](Cc1c[nH]cn1)NC(=O)[C@H](C)NC(=O)[C@H](CC(C)C)NC(=O)[C@H](CCCNC(=N)N)NC(=O)[C@H](CCC(=O)O)NC(=O)[C@@H](NC(=O)[C@H](C)NC(=O)[C@H](CCCN)NC(=O)[C@@H](NC(=O)[C@H](C)NC(=O)[C@@H](NC(=O)CNC(=O)[C@H](CC(=O)O)NC(=O)[C@H](CCCNC(=N)N)NC(=O)CC[C@H](NC(=O)CCCCCCCCCCCCCCCCCCC(=O)O)C(=O)O)[C@@H](C)O)[C@@H](C)O)[C@@H](C)O [Ref. 1, [19CD]-isoGlu-RDGTAT-Orn-ATERLAHFLQRSSF-Sar-A-Ile(Me)-PSSTEVGSNT-Hyp-NH2, reference compound] ({C20 diacid-γGlu}-RDGTAT[Orn]ATERLAHFLQRSSF[Sar]A[NMeI]PSSTEVGSNT[Hyp]-NH2)"
6.52,6.55,"CC[C@H](C)[C@@H](C(=O)N[C@@H](CC(C)C)C(=O)N[C@@H](CO)C(=O)N[C@@H](CO)C(=O)N[C@H](C(=O)N[C@@H](CCC(=O)O)C(=O)N[C@H](C(=O)NCC(=O)N[C@@H](CO)C(=O)N[C@@H](CC(N)=O)C(=O)N[C@H](C(=O)N1C[C@H](O)C[C@H]1C(N)=O)[C@@H](C)O)C(C)C)[C@@H](C)O)N(C)C(=O)[C@H](C)NC(=O)CN(C)C(=O)[C@H](Cc1ccccc1)NC(=O)[C@H](CO)NC(=O)[C@H](CO)NC(=O)[C@H](CCCNC(=N)N)NC(=O)[C@H](CCC(N)=O)NC(=O)[C@H](CC(C)C)NC(=O)[C@H](Cc1ccccc1)NC(=O)[C@H](Cc1c[nH]cn1)NC(=O)[C@H](C)NC(=O)[C@H](CC(C)C)NC(=O)[C@H](CCCNC(=N)N)NC(=O)[C@H](CCC(=O)O)NC(=O)[C@@H](NC(=O)[C@H](C)NC(=O)[C@@H]1CC(=O)NC[C@H](NC(=O)[C@H](CCCNC(=N)N)NC(=O)CC[C@H](NC(=O)CCCCCCCCCCCCCCCCCCC(=O)O)C(=O)O)C(=O)NCC(=O)N[C@@H]([C@@H](C)O)C(=O)N[C@@H](C)C(=O)N[C@@H]([C@@H](C)O)C(=O)N1)[C@@H](C)O [Compound 45, [19CD]-isoGlu-R-Dap()-GTATD()ATERLAHFLQRSSF-Gly(Me)-A-Ile(Me)-LSSTEVGSNT-Hyp-NH2] ({C20 diacid-γGlu}-R[Dap]GTATDATERLAHFLQRSSF[Sar]A[NMeI]LSSTEVGSNT[Hyp]-NH2; lactam 2-7)"
8.48,8.82,"CC[C@H](C)[C@@H](C(=O)N[C@@H](CC(C)C)C(=O)N[C@@H](CO)C(=O)N[C@@H](CO)C(=O)N[C@H](C(=O)N[C@@H](CCC(=O)O)C(=O)N[C@H](C(=O)NCC(=O)N[C@@H](CO)C(=O)N[C@@H](CC(N)=O)C(=O)N[C@H](C(=O)N1C[C@H](O)C[C@H]1C(N)=O)[C@@H](C)O)C(C)C)[C@@H](C)O)N(C)C(=O)[C@H](C)NC(=O)CN(C)C(=O)[C@H](Cc1ccccc1)NC(=O)[C@H](CO)NC(=O)[C@H](CO)NC(=O)[C@H](CCCNC(=N)N)NC(=O)[C@H](CCC(N)=O)NC(=O)[C@H](CC(C)C)NC(=O)[C@H](Cc1ccccc1)NC(=O)[C@H](Cc1c[nH]cn1)NC(=O)[C@H](C)NC(=O)[C@H](CC(C)C)NC(=O)[C@H](CCCNC(=N)N)NC(=O)[C@H](CCC(=O)O)NC(=O)[C@@H](NC(=O)[C@H](C)NC(=O)[C@@H]1CNC(=O)CCC[C@H](NC(=O)[C@H](CCCNC(=N)N)NC(=O)CC[C@H](NC(=O)CCCCCCCCCCCCCCCCCCC(=O)O)C(=O)O)C(=O)NCC(=O)N[C@@H]([C@@H](C)O)C(=O)N[C@@H](C)C(=O)N[C@@H]([C@@H](C)O)C(=O)N1)[C@@H](C)O [Compound 50, [19CD]-isoGlu-R-Aad()-GTAT-Dap()-ATERLAHFLQRSSF-Gly(Me)-A-Ile(Me)-LSSTEVGSNT-Hyp-NH2] ({C20 diacid-γGlu}-R[Aad]GTAT[Dap]ATERLAHFLQRSSF[Sar]A[NMeI]LSSTEVGSNT[Hyp]-NH2; lactam 2-7)"
